# Assay results from US5317022A, “Pharmaceutical composition and use” (priority 1991, dated 1994).
# “Also recorded” adds a separate entry of the source. Where two headings read alike, the source gives them in different places.
# Tests used:
# rat [1] = assay: analgetic effect, hot plate (rat); type: in vivo
# rats [2] = test system: rats
# mice [3] = assay: analgetic effect, writhing test (mice); type: in vivo
# rabbits [4] = assay: effects on respiration on conscious rabbits (III.5, Marey-drum)
# Protocol: Investigation was carried out on conscious rabbits of both sexes and of 3-4 kg weight by way of a Marey-drum. Frequency and amplitude of respiration were quantitatively evaluated.
# rat [5] = assay: analgetic effect, tail flick (rat); type: in vivo
# rats [6] = assay: sedative (narcosis potentiating) effect, Inactine base narcotic, rats; type: in vivo
# Protocol: Inactine (35 mg/kg) was used as a base narcotic.
# *ED500 % = dose increasing narcosis to five times the control.
# rat [7] = settings: dose giving 100% activity
# mice [8] = assay: physical dependency, jumping test on mice; settings: treatment 7 x 100 mg/kg ip.; naloxone 50 mg/kg ip.
# [9] = target: (^3 H)naloxone binding sites; assay: competition binding assay with (3H)naloxone on rat brain membranes; settings: membranes incubated with (3H)naloxone 1 nM and increasing ligand concentrations; read-out: Affinity constants (Ki nM) in competition assays
# Protocol: (§1) Membrane preparation: A crude membrane fraction from rat brain (PVG/C strain) was prepared [Mol. Pharm.11 (1975) 340-351 and the protein content was defined [Anal. Biochem. 72(1976) 248-254).
# (§2) The membrane suspension (200-400 μg protein) was incubated with the specific radioligand for 1 hour on ice. Incubations were terminated by rapid filtration under vacuo followed by washing with ice cold tris HCl buffer (50 mM, pH 7,4). Radioactivity was measured in a toluene based scintillation mixture on a LKB Minibeta Liquid Scintillation Spectrophotometer. Nonspecific binding was defined in the presence of 10 μM unlabeled naloxone. All assays were performed in triplicate and repeated several times. Ki values were determined from equilibrium experiments and calculated with the Tshang-Prusov equation. The data were evaluated using the Ligand program [Anal. Biol. Chem. 107 (1980) 220-239](Data shown on Table III/1).
# rabbits [10] = assay: effect on respiration on conscious rabbits (III.6, type A/B/C tests); type: in vivo; set-up: resp. change ampl.: unit not given here
# Protocol: The method as described above in Example III.5 was used on conscious rabbits of 2,5-3 kg weight. Registration was continued for 3-4 hours. The samples were injected under the skin of the neck and the respiration parameters were registered at intervals of 10 minutes.
# rat [11] = assay: animal or person; settings: read-out: algolyt. test (rat) 100% activity
# [12] = target: (^3 H)naloxone binding sites; assay: wash-resistant binding of (3H)naloxone, rat brain membranes; settings: preincubated with (3H)naloxone 1 nM and test compound; remaining specific binding after several washings; average of 2-4 data; compound.HCl; read-out: Ki (nM), affinity constants
# Protocol: as §1, §2
# After preincubation a thorough washing was performed. [Life Sci. 32 (1983) 2777-2784]. Control values are represented by the specific binding of (3H)naloxone to membranes preincubated with a buffer and treated in the same way. Heterologous displacement experiments were used to evaluate the affinity of the investigated compounds for (^3 H)naloxone binding sites.
# mice [13] = settings: in vivo
# [14] = s.c. on rats, Inactine 35 mg/kg, dose as base
# [15] = type A: OP 0.1 mg/kg s.c., 10 min
# [16] = type A: OP 0.5 mg/kg s.c., 10 min
# [17] = type A: OP 0.5 mg/kg s.c., then morphine 5 mg/kg s.c., 10 min
# [18] = type A: OP 0.5 mg/kg s.c., then morphine 5 mg/kg s.c., 60 min
# [19] = type B: morphine 5 mg/kg s.c., then OP 1.0 mg/kg s.c., 20 min
# [20] = type B: morphine 5 mg/kg s.c., then OP 1.0 mg/kg s.c., 30 min
# [21] = type C: OP 0.25 mg/kg with morphine 5 mg/kg s.c., 20 min
# [22] = type C: OP 0.25 mg/kg with morphine 5 mg/kg s.c., 30 min
# [23] = type C: OP 0.25 mg/kg with morphine 10 mg/kg s.c., 10 min
# [24] = type C: OP 0.25 mg/kg with morphine 20 mg/kg s.c., 30 min
# [25] = Rattus norvegicus, read-out: hot plate (rat) ED50
# [26] = Mus musculus, read-out: writhing test (mice) ED50
# [27] = Rattus norvegicus, read-out: tail flick (rat) ED50
# [28] = OS 0.025 mg/kg s.c. (20 min), morphine 5 mg/kg s.c., 20 min
# [29] = OS 0.025 mg/kg s.c. (30 min), morphine 5 mg/kg s.c., 30 min
# [30] = OS 0.025 mg/kg s.c., 10 min (before morphine)
# [31] = OS 0.50 mg/kg s.c. (30 min), morphine 20 mg/kg s.c., 20 min
# [32] = type A: OH 0.25 mg/kg s.c., 20 min
# [33] = type A: OH 0.25 mg/kg s.c., 30 min
# [34] = type A: OH 0.25 mg/kg s.c., then morphine 5 mg/kg s.c., 10 min
# [35] = type C: OH 0.25 mg/kg with morphine 5 mg/kg s.c., 20 min
smiles,measurement,setting,value
"COc1ccc2c3c1O[C@H]1C(=O)CC[C@@]4(O)[C@@H](C2)N(C)CC[C@]314 [Oxycodone, reference compound]",hot plate (rat) ED50,rat [1]; rat,0.92 mg/kg
same,change of morphine toxicity (in words),"rats [2]; administered together with morphine, s.c.",potentiate toxicity of morphine
same,Combination LD50 / morphine LD50,rats [2]; test substance 10 mg/kg s.c.,"0,57"
same,writhing test (mice) ED50,mice [3]; mice,"0,45 mg/kg"
same,respiration effect,"rabbits [4]; 10-2500 μg/kg i.v., s.c.",depression
same,respiration frequency/min.,"rabbits [4]; 10-2500 μg/kg i.v., s.c.",.dwnarw.
same,respiration volume,"rabbits [4]; 10-2500 μg/kg i.v., s.c.",.dwnarw.
same,influence on the respiratory depression effect of morphine (in words),"rabbits [4]; rabbit, in vivo",unambiguously potentiate the respiratory depression effect of morphine
same,respiratory depression by the compound alone (in words),"rabbits [4]; s.c., dihydrocodeinone 50-2500 μg/kg, oxycodone 10-2500 μ/kg",cause respiratory depression
same,tail flick (rat) ED50,rat [5]; rat,"0,68 mg/kg"
same,ED500 % (dose increasing narcosis to five times the control),rats [6]; [14],"1,2 mg/kg"
same,algolyt. test (rat) 100% activity,rat [7],"2,2 mg/kg"
"CN1CC[C@]23c4c5ccc(O)c4O[C@H]2[C@@H](O)C=C[C@H]3[C@H]1C5 [Morphine, reference compound]",hot plate (rat) ED50,rat [1]; rat,"3,6 mg/kg"
same,writhing test (mice) ED50,mice [3]; mice,"0,45 mg/kg"
same,tail flick (rat) ED50,rat [5]; rat,"1,8 mg/kg"
same,% relation of jumping animals,mice [8],100%
same,number of jumps/mouse (average),mice [8],"34,5"
same,ED500 % (dose increasing narcosis to five times the control),rats [6]; [14],"1,75 mg/kg"
same,algolyt. test (rat) 100% activity,rat [7],"15,0 mg/kg"
"COc1ccc2c3c1O[C@H]1C(=NNc4ccccc4)CC[C@@]4(O)[C@@H](C2)N(C)CC[C@]314 [Oxycodone-phenylhydrazone, 14-OH-DIHYDROCODEINONE-PHENYLHYDRAZONE (CIS)]",Ki,[9],1150 nM
same,resp. change ampl.,rabbits [10]; [15],+20
same,resp. change fr/min,rabbits [10]; [15],+33
same,resp. change ampl.,rabbits [10]; [16],0
same,resp. change fr/min,rabbits [10]; [16],+16
same,resp. change ampl.,rabbits [10]; [17],-20
same,resp. change fr/min,rabbits [10]; [17],-17
same,resp. change ampl.,rabbits [10]; [18],0
same,resp. change fr/min,rabbits [10]; [18],0
same,resp. change ampl.,rabbits [10]; [19],+15
same,resp. change fr/min,rabbits [10]; [19],-16
same,resp. change ampl.,rabbits [10]; [20],+20
same,resp. change fr/min,rabbits [10]; [20],-6
same,resp. change ampl.,rabbits [10]; [21],+20
same,resp. change fr/min,rabbits [10]; [21],+44
same,resp. change ampl.,rabbits [10]; [22],+30
same,resp. change fr/min,rabbits [10]; [22],+92
same,resp. change ampl.,rabbits [10]; [23],+20
same,resp. change fr/min,rabbits [10]; [23],+23
same,resp. change ampl.,rabbits [10]; [24],0
same,resp. change fr/min,rabbits [10]; [24],-8
same,ED50,rat [1]; [25],0.8 mg/kg
same,ED50,mice [3]; [26],1.2 mg/kg
same,influence on the respiratory depression effect of morphine (in words),"rabbits [4]; rabbit, in vivo",partially antagonizes the effect of morphine
same,respiration effect,"rabbits [4]; rabbit, in vivo, sc",no change; also recorded: slight stym
same,ED50,rat [5]; [27],1.2 mg/kg
same,ED500 % (dose increasing narcosis to five times the control),"rats [6]; rat, in vivo","1,5 mg/kg"
same,ED100,rat [11],10 mg/kg
same,Ki,[12],1150 nM
"COc1ccc2c3c1O[C@H]1C(=NNC(N)=O)CC[C@@]4(O)[C@@H](C2)N(C)CC[C@]314 [Oxycodone-semicarbazone, 14-OH-DIHYDROCODEINONE-SEMICARBAZONE (TRANS)]",Ki,[9],588 nM
same,resp. change ampl.,"rabbits [10]; OS 0.01 mg/kg s.c., 10 min",0
same,resp. change fr/min,"rabbits [10]; OS 0.01 mg/kg s.c., 10 min",+48
same,resp. change ampl.,"rabbits [10]; OS 0.01 mg/kg s.c., 30 min",+20
same,resp. change fr/min,"rabbits [10]; OS 0.01 mg/kg s.c., 30 min",+51
same,resp. change ampl.,rabbits [10]; [28],-16
same,resp. change fr/min,rabbits [10]; [28],+24
same,resp. change ampl.,rabbits [10]; [29],-20
same,resp. change fr/min,rabbits [10]; [29],+13
same,resp. change ampl.,rabbits [10]; [30],+20
same,resp. change fr/min,rabbits [10]; [30],+48
same,resp. change ampl.,"rabbits [10]; OS 0.025 mg/kg s.c., 30 min",+20
same,resp. change fr/min,"rabbits [10]; OS 0.025 mg/kg s.c., 30 min",+51
same,resp. change ampl.,"rabbits [10]; OS 0.05 mg/kg s.c., 10 min",+75
same,resp. change fr/min,"rabbits [10]; OS 0.05 mg/kg s.c., 10 min",+50
same,resp. change ampl.,rabbits [10]; [31],0
same,resp. change fr/min,rabbits [10]; [31],+10
same,resp. change ampl.,"rabbits [10]; OS 0.50 mg/kg s.c., 10 min",0
same,resp. change fr/min,"rabbits [10]; OS 0.50 mg/kg s.c., 10 min",+36
same,respiration number (in words),rabbits [10]; small doses,considerably increase the respiration number
same,ED50,rat [1]; [25],0.58 mg/kg
same,ED50,mice [3]; [26],0.15 mg/kg
same,respiration effect (printed over two lines: morphine-inhibition),"rabbits [4]; rabbit, in vivo",inhibition
same,respiration frequency/min.,"rabbits [4]; rabbit, in vivo",.uparw.
same,respiration volume,"rabbits [4]; rabbit, in vivo",.uparw..dwnarw.
same,ED50,rat [5]; [27],0.35 mg/kg
same,ED500 % (dose increasing narcosis to five times the control),"rats [6]; rat, in vivo","1,5 mg/kg"
same,ED100,rat [11],5 mg/kg
same,Ki,[12],588 nM
"COc1ccc2c3c1O[C@H]1C(=NN)CC[C@@]4(O)[C@@H](C2)N(C)CC[C@]314 [Oxycodone hydrazone, 14-OH-DIHYDROCODEINONE-HYDRAZONE (TRANS)]",Ki,[9],800 nM
same,resp. change ampl.,rabbits [10]; [32],+20
same,resp. change fr/min,rabbits [10]; [32],+150
same,resp. change ampl.,rabbits [10]; [33],+20
same,resp. change fr/min,rabbits [10]; [33],+127
same,resp. change ampl.,rabbits [10]; [34],-30
same,resp. change fr/min,rabbits [10]; [34],-36
same,resp. change ampl.,rabbits [10]; [35],+10
same,resp. change fr/min,rabbits [10]; [35],+30
same,ED50,rat [1]; Rattus norvegicus; read-out: hot plate (rat) ED50,0.46 mg/kg
same,ED50,mice [3]; Mus musculus; read-out: writhing test (mice) ED50,0.35 mg/kg
same,volume and frequency of respiration (in words),rabbits [4]; 50 μg/kg dose,increases both the volume and the frequency of respiration
same,respiration effect (printed over two lines: slight reversion),"rabbits [4]; rabbit, in vivo",reversion
same,reversal of morphine respiratory depression (in words),"rabbits [4]; rabbit, in vivo",a partial reversal takes place
same,respiration frequency/min.,"rabbits [4]; rabbit, in vivo, sc",.uparw.
same,respiration volume,"rabbits [4]; rabbit, in vivo, sc",.uparw.
same,number of jumps/mouse (average),mice [13],"1,5"
same,% relation of jumping animals,mice [13]; mouse,50%
same,ED50,rat [5]; Rattus norvegicus; read-out: tail flick (rat) ED50,0.65 mg/kg
same,ED500 % (dose increasing narcosis to five times the control),"rats [6]; rat, in vivo","0,45 mg/kg"
same,potentiation of Inactine narcosis (in words),"rats [6]; rat, in vivo",most effectively prolongated
same,ED100,rat [11],10 mg/kg
